Among the test systems are 786-0 renal; A549 NSCLC; MOLT-4 leukemia; NCI-H460 lung; RXF 393 renal; SK-MEL-2 melanoma; UACC-62 melanoma.
What all share (assay): NCI tumour cell line growth inhibition, 48 h

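Protocol summary: plate cells (96-well), add compound at 5 concentrations, incubate 48 h, interpolate endpoints linearly. GI50: concentration for 50% inhibition of growth. Definition used: TGI = concentration required for complete inhibition of growth.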 Bounds are passed on as bounds.

With `COC(=O)[C@@H](C)C[C@H](Cc1ccccc1)NC(=O)c1nc([C@@H](C[C@H](C(C)C)N(C)C(=O)[C@@H](NC(=O)[C@H]2CCCCN2C)C(C)C)OC(C)=O)sc1C`, the GI50 in the experiment with 786-0 renal was less than 0.00167 µM; with A549 NSCLC, 0.00734 µM; with MOLT-4 leukemia, 0.00225 µM; in the experiment on NCI-H460 lung, less than 0.00167 µM; in the experiment on RXF 393 renal, less than 0.00167 µM; with SK-MEL-2 melanoma, less than 0.00167 µM. Further, the GI50 with UACC-62 melanoma is less than 0.00167 µM. Further, the TGI in the experiment on 786-0 renal, in the experiment with A549 NSCLC, with MOLT-4 leukemia, in the experiment with NCI-H460 lung, in the experiment on RXF 393 renal and in the experiment on SK-MEL-2 melanoma was greater than 16.7 µM in each case. The same compound showed a TGI in the experiment with UACC-62 melanoma greater than 16.7 µM.
For the compound `N#Cc1cnc2cc(OC[C@H](O)CO)c(NC(=O)CC3CSSC3)cc2c1Nc1ccc(OCc2cccc(F)c2)c(Cl)c1`, the GI50 is 1.76 µM with 786-0 renal; 0.924 µM with A549 NSCLC; 0.0931 µM in the experiment on MOLT-4 leukemia; 0.126 µM with NCI-H460 lung; 0.987 µM with RXF 393 renal; 0.638 µM in the experiment with SK-MEL-2 melanoma. The GI50 in the experiment on UACC-62 melanoma was 0.807 µM. Moreover, the TGI was 9.6 µM in the experiment with 786-0 renal; 1.98 µM in the experiment on A549 NSCLC; 0.209 µM in the experiment on MOLT-4 leukemia; 0.298 µM in the experiment with NCI-H460 lung; 1.85 µM with RXF 393 renal; 1.4 µM in the experiment on SK-MEL-2 melanoma. Also, the TGI in the experiment on UACC-62 melanoma worked out at 1.68 µM.
On to `C[C@@H](C(=O)Nc1ccc(Cl)cc1)C1CCC(c2ccnc3ccc(F)cc23)CC1` (stereo partly specified), for which the GI50 in the experiment with 786-0 renal is 4.31 µM; in the experiment on A549 NSCLC, 9.9 µM; with MOLT-4 leukemia, 4.16 µM; in the experiment on NCI-H460 lung it was 4.3 µM; in the experiment with RXF 393 renal, 3.6 µM; in the experiment on SK-MEL-2 melanoma, 9.81 µM. Besides, the GI50 in the experiment on UACC-62 melanoma was 10.3 µM. Further, the TGI in the experiment with 786-0 renal was greater than 100 µM; with A549 NSCLC it was greater than 100 µM; in the experiment on MOLT-4 leukemia it was greater than 100 µM; in the experiment on NCI-H460 lung it was 45.5 µM; in the experiment with RXF 393 renal, 26.7 µM; in the experiment with SK-MEL-2 melanoma, 29.8 µM. The compound also registered a TGI with UACC-62 melanoma of 47.2 µM.
For the compound `O=C(CC(=O)CC(O)(C(F)(F)F)C(F)(F)F)CC(O)(C(F)(F)F)C(F)(F)F`, the TGI in the experiment with 786-0 renal, with A549 NSCLC, in the experiment on MOLT-4 leukemia, in the experiment on NCI-H460 lung, with RXF 393 renal and with SK-MEL-2 melanoma was greater than 10 µM each time. In addition, the TGI in the experiment on UACC-62 melanoma was greater than 10 µM.
On to `COC(=O)[C@H](Cc1cn(C)cn1)NC(=O)[C@H](Cc1c[nH]c2ccccc12)NC(=O)Nc1cc(C(F)(F)F)cc(C(F)(F)F)c1`, for which the GI50 in the experiment with 786-0 renal, in the experiment on A549 NSCLC, with MOLT-4 leukemia, with NCI-H460 lung, in the experiment on RXF 393 renal and in the experiment on SK-MEL-2 melanoma was greater than 10 µM throughout. Further, the GI50 in the experiment on UACC-62 melanoma was greater than 10 µM. The TGI in the experiment on 786-0 renal, in the experiment with A549 NSCLC, in the experiment on MOLT-4 leukemia, in the experiment on NCI-H460 lung, in the experiment on RXF 393 renal and in the experiment with SK-MEL-2 melanoma was greater than 10 µM each time. Besides, the TGI in the experiment with UACC-62 melanoma is greater than 10 µM.
As to `COc1ccc(C(=O)/C=C/c2ccc(/C=C/c3cc(OC)c(OC)c(OC)c3)cc2)cc1`, the GI50 in the experiment with 786-0 renal was 10.4 µM; in the experiment on A549 NSCLC it was 4.67 µM; with MOLT-4 leukemia, 3.49 µM; with NCI-H460 lung it was 8.65 µM; with RXF 393 renal, 8.01 µM; in the experiment on SK-MEL-2 melanoma, 18.9 µM. For the same compound, the GI50 in the experiment on UACC-62 melanoma is 7.13 µM. Further, the TGI in the experiment on 786-0 renal is 71.1 µM; in the experiment on A549 NSCLC it was 80.9 µM; in the experiment on MOLT-4 leukemia, greater than 100 µM; with NCI-H460 lung, greater than 100 µM; with RXF 393 renal, 43.6 µM; with SK-MEL-2 melanoma, greater than 100 µM. Also, the TGI with UACC-62 melanoma was greater than 100 µM.
As to `Cc1occc1C(=S)Nc1ccc(Cl)c(COC(C)(C)C)c1`, the TGI in the experiment with 786-0 renal came out at 30.3 µM; with A549 NSCLC it was 41.8 µM; in the experiment on MOLT-4 leukemia it was 47.9 µM; in the experiment with NCI-H460 lung, 31 µM; with RXF 393 renal, 32.3 µM; with SK-MEL-2 melanoma, 33.1 µM. Further, in the experiment with UACC-62 melanoma, the TGI is 28.6 µM.
As to `CCN(CC)S(=O)(=O)c1ccc(OC)c(Nc2ncc(-c3ccccc3)o2)c1`, the GI50 in the experiment on 786-0 renal was 22.8 µM; in the experiment on A549 NSCLC, 24.9 µM; in the experiment with MOLT-4 leukemia, greater than 18.3 µM; in the experiment with NCI-H460 lung it was greater than 23.1 µM; with RXF 393 renal it was greater than 10.6 µM; in the experiment on SK-MEL-2 melanoma it was greater than 22.7 µM. The GI50 with UACC-62 melanoma was greater than 18.3 µM. In addition, the TGI with 786-0 renal, in the experiment on A549 NSCLC, with MOLT-4 leukemia, in the experiment on NCI-H460 lung, with RXF 393 renal and with SK-MEL-2 melanoma was greater than 25 µM in each case. The compound further registered a TGI with UACC-62 melanoma greater than 25 µM.
On to `CNC(=O)n1ccc2cc(Oc3ccnc(NC(=O)c4ccc(C5CCN(CCO)CC5)cc4)c3)c(OCCOC)cc21`, for which the GI50 with 786-0 renal was 1.94 µM; in the experiment on A549 NSCLC it was 5.27 µM; with MOLT-4 leukemia, 2.65 µM; with NCI-H460 lung, 3.22 µM; with RXF 393 renal, 1.34 µM; in the experiment on SK-MEL-2 melanoma it was 8.57 µM. In addition, in the experiment with UACC-62 melanoma, the GI50 is 5.23 µM. Moreover, the TGI in the experiment with 786-0 renal is 4.38 µM; with A549 NSCLC it was 21.4 µM; in the experiment with MOLT-4 leukemia, 12.7 µM; with NCI-H460 lung, 10.2 µM; in the experiment on RXF 393 renal, 3.09 µM; with SK-MEL-2 melanoma, 23.2 µM. Also, the TGI in the experiment with UACC-62 melanoma turned out to be 17.5 µM.
Take `CNC(=O)c1cncc(/C=C/c2ccccc2C)c1`: the GI50 in the experiment on 786-0 renal, in the experiment with A549 NSCLC, in the experiment on MOLT-4 leukemia, in the experiment with NCI-H460 lung, in the experiment with RXF 393 renal and in the experiment on SK-MEL-2 melanoma was greater than 25 µM in each case. In addition, the GI50 with UACC-62 melanoma is greater than 25 µM. Further, the TGI in the experiment on 786-0 renal, in the experiment on A549 NSCLC, in the experiment on MOLT-4 leukemia, with NCI-H460 lung, in the experiment with RXF 393 renal and in the experiment on SK-MEL-2 melanoma was greater than 25 µM throughout. Further, the TGI with UACC-62 melanoma is greater than 25 µM.

For the origin of these results see PubChem BioAssay (NCI).
